{"source": "the supplement of paper PMC9663587", "key": {"AZD1775": {"compound": "C=CCn1c(=O)c2cnc(Nc3ccc(N4CCN(C)CC4)cc3)nc2n1-c1cccc(C(C)(C)O)n1 [AZD1775]"}, "[1]": {"compound": "CC(=O)Nc1cccc(-n2c(=O)n(C3CC3)c(=O)c3c(Nc4ccc(I)cc4F)n(C)c(=O)c(C)c32)c1"}, "BVD523": {"compound": "CC(C)Nc1cc(-c2c[nH]c(C(=O)N[C@H](CO)c3cccc(Cl)c3)c2)c(Cl)cn1 [BVD523]"}, "[2]": {"compound": "CCCCOc1c(C(=O)c2c(F)cc(C)cc2F)c[nH]c2nncc1-2"}, "THZ531 [3]": {"compound": "T1, CN(C)C/C=C/C(=O)Nc1ccc(C(=O)N2CCC[C@@H](Nc3ncc(Cl)c(-c4c[nH]c5ccccc45)n3)C2)cc1 [THZ531]"}, "THZ1 [4]": {"compound": "T2, CN(C)C/C=C/C(=O)Nc1ccc(C(=O)Nc2cccc(Nc3ncc(Cl)c(-c4c[nH]c5ccccc45)n3)c2)cc1 [THZ1]"}, "Saracatinib/AZD0530": {"compound": "CN1CCN(CCOc2cc(OC3CCOCC3)c3c(Nc4c(Cl)ccc5c4OCO5)ncnc3c2)CC1 [Saracatinib/AZD0530]"}, "Rucaparib": {"compound": "CNCc1ccc(-c2[nH]c3cc(F)cc4c3c2CCNC4=O)cc1 [Rucaparib]"}, "[5]": {"compound": "CO[C@@H](C)Cn1c(=O)n(C)c2cnc3ccc(-c4cncc(C(C)(C)O)c4)cc3c21"}, "Cediranib/AZD2171": {"compound": "COc1cc2c(Oc3ccc4[nH]c(C)cc4c3F)ncnc2cc1OCCCN1CCCC1 [Cediranib/AZD2171]"}, "[6]": {"compound": "COc1ccc2c(c1)[C@]1(C[C@H]1c1ccc3c(/C=C/c4ccc(CN5C[C@@H](C)O[C@@H](C)C5)cc4)n[nH]c3c1)C(=O)N2"}, "Alpelisib/BYL719": {"compound": "Cc1nc(NC(=O)N2CCC[C@H]2C(N)=O)sc1-c1ccnc(C(C)(C)C(F)(F)F)c1 [Alpelisib/BYL719]"}, "YKL-5-124": {"compound": "C=CC(=O)Nc1ccc(C(=O)Nc2[nH]nc3c2CN(C(=O)N[C@H](CN(C)C)c2ccccc2)C3(C)C)cc1 [YKL-5-124]", "experiment": "increase in dead-cell fraction, 72 h; higher = more death;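 further: breast cancer cell lines in 384-well plates, stained with Hoechst plus LIVE/DEAD far red dye and imaged, cells above an LDR intensity threshold counted dead, Hoechst-negative corpses included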"}, "BSJ-03-123": {"compound": "CC(=O)c1c(C)c2cnc(Nc3ccc(N4CCN(CCOCCOCCOCCNC(=O)COc5cccc6c5C(=O)N(C5CCC(=O)NC5=O)C6=O)CC4)cn3)nc2n(C2CCCC2)c1=O [BSJ-03-123]", "experiment": "increase in dead-cell fraction, 72 h; higher = more death"}, "[7]": {"compound": "CC(=O)c1c(C)c2cnc(Nc3ccc(N4CCNCC4)cn3)nc2n(C2CCCC2)c1=O", "experiment": "increase in dead-cell fraction, 72 h; higher = more death"}, "Neratinib/HKI272": {"compound": "CCOc1cc2ncc(C#N)c(Nc3ccc(OCc4ccccn4)c(Cl)c3)c2cc1NC(=O)/C=C/CN(C)C [Neratinib/HKI272]", "experiment": "increase in dead-cell fraction, 72 h; higher = more death"}, "[8]": {"compound": "CCc1cnn2c(NCc3ccc[n+]([O-])c3)cc(N3CCCC[C@H]3CCO)nc12", "experiment": "increase in dead-cell fraction, 72 h; higher = more death"}, "LEE011/Ribociclib": {"compound": "CN(C)C(=O)c1cc2cnc(Nc3ccc(N4CCNCC4)cn3)nc2n1C1CCCC1 [LEE011/Ribociclib]", "experiment": "increase in dead-cell fraction, 72 h; higher = more death"}, "THZ531 [9]": {"compound": "T1, THZ531", "experiment": "increase in dead-cell fraction, 72 h; higher = more death"}, "THZ1 [10]": {"compound": "T2, THZ1", "experiment": "increase in dead-cell fraction, 72 h; higher = more death"}}}
{"cell line": "ZR751", "values": [{"measurement": "GR50, 72 h", "setting": "AZD1775", "result": 6.23, "unit": "µM"}, {"measurement": "GR50, 72 h", "setting": "[1]", "result": 0.0293, "unit": "µM"}, {"measurement": "GR50, 72 h", "setting": "BVD523", "result": "> 10", "unit": "µM"}, {"measurement": "GR50, 72 h", "setting": "[2]", "result": "> 10", "unit": "µM"}, {"measurement": "GR50, 72 h", "setting": "THZ531 [3]", "result": 0.427, "unit": "µM"}, {"measurement": "GR50, 72 h", "setting": "THZ1 [4]", "result": 0.428, "unit": "µM"}, {"measurement": "GR50, 72 h", "setting": "Saracatinib/AZD0530", "result": 3.66, "unit": "µM"}, {"measurement": "GR50, 72 h", "setting": "Rucaparib", "result": "> 10", "unit": "µM"}, {"measurement": "GR50, 72 h", "setting": "[5]", "result": 0.0135, "unit": "µM"}, {"measurement": "GR50, 72 h", "setting": "Cediranib/AZD2171", "result": "> 10", "unit": "µM"}, {"measurement": "GR50, 72 h", "setting": "[6]", "result": 0.0085, "unit": "µM"}, {"measurement": "GR50, 72 h", "setting": "Alpelisib/BYL719", "result": "> 10", "unit": "µM"}, {"measurement": "increase in dead-cell fraction", "setting": "YKL-5-124; 0.001 µM", "result": 0.0021}, {"measurement": "increase in dead-cell fraction", "setting": "YKL-5-124; 0.003162 µM", "result": 0.0092}, {"measurement": "increase in dead-cell fraction", "setting": "YKL-5-124; 0.01 µM", "result": 0.0198}, {"measurement": "increase in dead-cell fraction", "setting": "YKL-5-124; 0.03162 µM", "result": 0.0185}, {"measurement": "increase in dead-cell fraction", "setting": "YKL-5-124; 0.1 µM", "result": 0.014}, {"measurement": "increase in dead-cell fraction", "setting": "YKL-5-124; 0.3162 µM", "result": 0.0125}, {"measurement": "increase in dead-cell fraction", "setting": "YKL-5-124; 1 µM", "result": 0.0157}, {"measurement": "increase in dead-cell fraction", "setting": "YKL-5-124; 3.162 µM", "result": 0.0241}, {"measurement": "increase in dead-cell fraction", "setting": "YKL-5-124; 10 µM", "result": 0.0249}, {"measurement": "increase in dead-cell fraction", "setting": "BSJ-03-123; 0.001 µM", "result": -0.0037}, {"measurement": "increase in dead-cell fraction", "setting": "BSJ-03-123; 0.003162 µM", "result": -0.0033}, {"measurement": "increase in dead-cell fraction", "setting": "BSJ-03-123; 0.01 µM", "result": -0.0001}, {"measurement": "increase in dead-cell fraction", "setting": "BSJ-03-123; 0.03162 µM", "result": -0.0011}, {"measurement": "increase in dead-cell fraction", "setting": "BSJ-03-123; 0.1 µM", "result": 0.0026}, {"measurement": "increase in dead-cell fraction", "setting": "BSJ-03-123; 0.3162 µM", "result": -0.0001}, {"measurement": "increase in dead-cell fraction", "setting": "BSJ-03-123; 1 µM", "result": 0.0048}, {"measurement": "increase in dead-cell fraction", "setting": "BSJ-03-123; 3.162 µM", "result": 0.004}, {"measurement": "increase in dead-cell fraction", "setting": "BSJ-03-123; 10 µM", "result": 0.0165}, {"measurement": "increase in dead-cell fraction", "setting": "[7]; 0.0003162 µM", "result": -0.0023}, {"measurement": "increase in dead-cell fraction", "setting": "[7]; 0.001 µM", "result": -0.0015}, {"measurement": "increase in dead-cell fraction", "setting": "[7]; 0.003162 µM", "result": -0.0035}, {"measurement": "increase in dead-cell fraction", "setting": "[7]; 0.01 µM", "result": 0.0001}, {"measurement": "increase in dead-cell fraction", "setting": "[7]; 0.03162 µM", "result": 0.002}, {"measurement": "increase in dead-cell fraction", "setting": "[7]; 0.1 µM", "result": -0.0025}, {"measurement": "increase in dead-cell fraction", "setting": "[7]; 0.3162 µM", "result": 0.0083}, {"measurement": "increase in dead-cell fraction", "setting": "[7]; 1 µM", "result": 0.008}, {"measurement": "increase in dead-cell fraction", "setting": "[7]; 3.162 µM", "result": 0.0189}, {"measurement": "increase in dead-cell fraction", "setting": "Neratinib/HKI272; 0.0003162 µM", "result": -0.0059}, {"measurement": "increase in dead-cell fraction", "setting": "Neratinib/HKI272; 0.001 µM", "result": -0.0002}, {"measurement": "increase in dead-cell fraction", "setting": "Neratinib/HKI272; 0.003162 µM", "result": -0.0001}, {"measurement": "increase in dead-cell fraction", "setting": "Neratinib/HKI272; 0.01 µM", "result": -0.0032}, {"measurement": "increase in dead-cell fraction", "setting": "Neratinib/HKI272; 0.03162 µM", "result": -0.0037}, {"measurement": "increase in dead-cell fraction", "setting": "Neratinib/HKI272; 0.1 µM", "result": -0.0037}, {"measurement": "increase in dead-cell fraction", "setting": "Neratinib/HKI272; 0.3162 µM", "result": 0}, {"measurement": "increase in dead-cell fraction", "setting": "Neratinib/HKI272; 1 µM", "result": 0.0004}, {"measurement": "increase in dead-cell fraction", "setting": "Neratinib/HKI272; 3.162 µM", "result": 0.001}, {"measurement": "increase in dead-cell fraction", "setting": "[8]; 0.0001 µM", "result": -0.0029}, {"measurement": "increase in dead-cell fraction", "setting": "[8]; 0.0003162 µM", "result": -0.0028}, {"measurement": "increase in dead-cell fraction", "setting": "[8]; 0.001 µM", "result": -0.0042}, {"measurement": "increase in dead-cell fraction", "setting": "[8]; 0.003162 µM", "result": 0.0003}, {"measurement": "increase in dead-cell fraction", "setting": "[8]; 0.01 µM", "result": -0.0059}, {"measurement": "increase in dead-cell fraction", "setting": "[8]; 0.03162 µM", "result": 0.008}, {"measurement": "increase in dead-cell fraction", "setting": "[8]; 0.1 µM", "result": 0.22}, {"measurement": "increase in dead-cell fraction", "setting": "[8]; 0.3162 µM", "result": 0.21}, {"measurement": "increase in dead-cell fraction", "setting": "[8]; 1 µM", "result": 0.202}, {"measurement": "increase in dead-cell fraction", "setting": "LEE011/Ribociclib; 0.001 µM", "result": 0.001}, {"measurement": "increase in dead-cell fraction", "setting": "LEE011/Ribociclib; 0.003162 µM", "result": 0.0005}, {"measurement": "increase in dead-cell fraction", "setting": "LEE011/Ribociclib; 0.01 µM", "result": 0.0005}, {"measurement": "increase in dead-cell fraction", "setting": "LEE011/Ribociclib; 0.03162 µM", "result": -0.0023}, {"measurement": "increase in dead-cell fraction", "setting": "LEE011/Ribociclib; 0.1 µM", "result": 0.0065}, {"measurement": "increase in dead-cell fraction", "setting": "LEE011/Ribociclib; 0.3162 µM", "result": 0.0036}, {"measurement": "increase in dead-cell fraction", "setting": "LEE011/Ribociclib; 1 µM", "result": 0.0073}, {"measurement": "increase in dead-cell fraction", "setting": "LEE011/Ribociclib; 3.162 µM", "result": 0.0082}, {"measurement": "increase in dead-cell fraction", "setting": "LEE011/Ribociclib; 10 µM", "result": 0.0077}, {"measurement": "increase in dead-cell fraction", "setting": "THZ531 [9]; 0.0001 µM", "result": -0.0027}, {"measurement": "increase in dead-cell fraction", "setting": "THZ531 [9]; 0.0003162 µM", "result": 0.0028}, {"measurement": "increase in dead-cell fraction", "setting": "THZ531 [9]; 0.001 µM", "result": -0.0004}, {"measurement": "increase in dead-cell fraction", "setting": "THZ531 [9]; 0.003162 µM", "result": 0.0013}, {"measurement": "increase in dead-cell fraction", "setting": "THZ531 [9]; 0.01 µM", "result": -0.0036}, {"measurement": "increase in dead-cell fraction", "setting": "THZ531 [9]; 0.03162 µM", "result": 0.0009}, {"measurement": "increase in dead-cell fraction", "setting": "THZ531 [9]; 0.1 µM", "result": 0.0019}, {"measurement": "increase in dead-cell fraction", "setting": "THZ531 [9]; 0.3162 µM", "result": 0.0013}, {"measurement": "increase in dead-cell fraction", "setting": "THZ531 [9]; 1 µM", "result": 0.151}, {"measurement": "increase in dead-cell fraction", "setting": "THZ1 [10]; 0.0001 µM", "result": -0.0022}, {"measurement": "increase in dead-cell fraction", "setting": "THZ1 [10]; 0.0003162 µM", "result": -0.0022}, {"measurement": "increase in dead-cell fraction", "setting": "THZ1 [10]; 0.001 µM", "result": 0.0059}, {"measurement": "increase in dead-cell fraction", "setting": "THZ1 [10]; 0.003162 µM", "result": -0.0001}, {"measurement": "increase in dead-cell fraction", "setting": "THZ1 [10]; 0.01 µM", "result": 0.002}, {"measurement": "increase in dead-cell fraction", "setting": "THZ1 [10]; 0.03162 µM", "result": 0.0035}, {"measurement": "increase in dead-cell fraction", "setting": "THZ1 [10]; 0.1 µM", "result": 0.0005}, {"measurement": "increase in dead-cell fraction", "setting": "THZ1 [10]; 0.3162 µM", "result": 0.0111}, {"measurement": "increase in dead-cell fraction", "setting": "THZ1 [10]; 1 µM", "result": 0.0673}]}
